Data published in the supplement of paper PMC11368000.

Assays:
Conditions in all cases: exposure time: 90 min
[1] = test system: 1309 (donor line of iPSC-derived cardiomyocytes); assay: POD (EC05) for increase in Ca2+ transient decay-to-rise ratio (QT prolongation) vs vehicle; higher = less potent (higher point of departure)
Procedure, shortened: (§1)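 Ca2+ flux in human iPSC-derived cardiomyocytes from 16 donors was recorded on a FLIPR Tetra for 100 s before and after a 90 min exposure at 37 °C to 0.1, 1, 10 and 100 µM (final, 0.5% DMSO). Donor-specific points of departure came from hierarchical Bayesian Hill fits to vehicle-normalised beat frequency, decay-to-rise ratio or peak frequency. A 5% change served as threshold, except for peak frequency, where it was a 95% loss.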

[2] = test system: 1531 (donor line of iPSC-derived cardiomyocytes); assay: as above
Procedure, shortened: as §1

[3] = test system: 1309; assay: POD (EC05) for increase in beat frequency (positive chronotrope) vs vehicle; higher = less potent (higher point of departure)
Method: (§2)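 Human iPSC-derived cardiomyocytes from 16 donors were exposed for 90 min at 37 °C to each PFAS at 0.1, 1, 10 and 100 µM in 0.5% DMSO, 384-well plates. Kinetic Ca2+ flux (FLIPR) and Hoechst nuclei counts were normalised to vehicle wells and fitted with a hierarchical Bayesian Hill model to give donor-specific PODs: EC05 for beat-rate increase or decrease and for decay-to-rise ratio increase (QT proxy), EC95 for peak-frequency loss (asystole), EC10 for total cell number loss. 0.03 µM is the lower bound.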

[4] = test system: 20032 (donor line of iPSC-derived cardiomyocytes); assay: as above
Method: as §2

[5] = test system: 1434 (donor line of iPSC-derived cardiomyocytes); assay: as above
Method: as §2

[6] = test system: 1565 (donor line of iPSC-derived cardiomyocytes); assay: as above
Method: as §2

[7] = test system: 20084 (donor line of iPSC-derived cardiomyocytes); assay: as above
Method: as §2

[8] = test system: 1392 (donor line of iPSC-derived cardiomyocytes); assay: as above
Method: as §2

[9] = test system: 1518 (donor line of iPSC-derived cardiomyocytes); assay: as above
Method: as §2

[10] = test system: 1535 (donor line of iPSC-derived cardiomyocytes); assay: as above
Method: as §2

[11] = test system: 1368 (donor line of iPSC-derived cardiomyocytes); assay: as above
Method: as §2

[12] = test system: 1118 (donor line of iPSC-derived cardiomyocytes); assay: as above
Method: as §2

[13] = test system: 1083 (donor line of iPSC-derived cardiomyocytes); assay: as above
Method: as §2

[14] = test system: 1516 (donor line of iPSC-derived cardiomyocytes); assay: as above
Method: as §2

[15] = test system: 1531; assay: as above
Method: as §2

[16] = test system: 11235 (donor line of iPSC-derived cardiomyocytes); assay: as above
Method: as §2

[17] = test system: 30171 (donor line of iPSC-derived cardiomyocytes); assay: as above
Method: as §2

[18] = test system: 1518; assay: POD (EC05) for increase in Ca2+ transient decay-to-rise ratio (QT prolongation) vs vehicle; higher = less potent (higher point of departure)
Procedure, shortened: as §1

[19] = test system: 1516; assay: as above
Procedure, shortened: as §1

[20] = test system: 30145 (donor line of iPSC-derived cardiomyocytes); assay: POD (EC05) for increase in beat frequency (positive chronotrope) vs vehicle; higher = less potent (higher point of departure)
Method: as §2

Structure (SMILES)	POD vs vehicle [1] [µM]	POD vs vehicle [2] [µM]	POD vs vehicle [3] [µM]	POD vs vehicle [4] [µM]	POD vs vehicle [5] [µM]	POD vs vehicle [6] [µM]	POD vs vehicle [7] [µM]	POD vs vehicle [8] [µM]	POD vs vehicle [9] [µM]	POD vs vehicle [10] [µM]	POD vs vehicle [11] [µM]	POD vs vehicle [12] [µM]	POD vs vehicle [13] [µM]	POD vs vehicle [14] [µM]	POD vs vehicle [15] [µM]	POD vs vehicle [16] [µM]	POD vs vehicle [17] [µM]	POD vs vehicle [18] [µM]	POD vs vehicle [19] [µM]	POD vs vehicle [20] [µM]
O=C(O)C(F)(F)OC(F)(F)C(F)(F)OC(F)(F)F [Perfluoro-3,6-dioxaheptanoic_acid]	> 100	> 100	> 100	> 100	> 100	> 100	> 100	> 100	> 100	> 100	> 100	> 100	> 100	> 100	> 100	> 100	> 100			
OCC(F)(F)OC(F)(F)C(F)(F)OC(F)(F)C(F)(F)OC(F)(F)F [Fluorinated_triethylene_glycol_monomethyl_ether]	> 100		> 100	> 100	> 100	> 100	> 100	> 100		> 100	> 100	> 100	> 100		> 100	> 100		> 100	> 100	
O=C(O)C(F)(F)OC(F)(F)C(F)(F)OC(F)(F)C(=O)O [Perfluoro-3,6-dioxaoctane-1,8-dioic_acid]	> 100		> 100	> 100	> 100	> 100	> 100	36	28	> 100	> 100	> 100	> 100	68.4	> 100	> 100	> 100	> 100	> 100	> 100
OCCC(F)(F)C(F)(F)C(F)(F)C(F)(F)F [4:2 Fluorotelomer alcohol]	> 100		> 100	> 100	> 100	> 100	> 100	> 100	> 100	> 100	> 100	> 100	> 100	> 100	> 100	> 100	> 100			
OCC(F)(F)C(F)(F)C(F)(F)F [Heptafluorobutanol]	> 100	> 100	> 100	> 100	> 100	> 100	> 100	> 100	> 100	> 100	> 100	> 100	> 100	> 100	> 100	> 100	> 100			
OCC(F)(F)C(F)(F)C(F)(F)C(F)F [1H,1H,5H-Perfluoropentanol]	> 100		> 100	> 100	> 100	> 100	> 100	> 100	> 100	> 100	> 100	> 100	> 100	> 100	> 100	> 100	> 100	2.03	4.56	> 100
O=S(=O)(OCC(F)(F)F)C(F)(F)C(F)(F)C(F)(F)C(F)(F)F [2,2,2-Trifluoroethyl_perfluorobutanesulfonate]	> 100		> 100	> 100	> 100	> 100	> 100	> 100	> 100	> 100	> 100	> 100	> 100	> 100	> 100	> 100	> 100			> 100
N=C(N)C(F)(F)C(F)(F)C(F)(F)C(F)(F)C(F)(F)C(F)(F)C(F)(F)F [Perfluorooctanamidine]	> 100		> 100	> 100	> 100	> 100	> 100	> 100	> 100	> 100	> 100	> 100	> 100	> 100	> 100	> 100	> 100		> 100	> 100
O=C(CC(=O)C(F)(F)C(F)(F)F)C(F)(F)F [3H,3H-Perfluoro-2,4-hexanedione]	> 100		> 100	> 100	> 100	> 100	> 100	> 100	> 100	> 100	> 100	> 100	> 100	> 100	> 100	> 100	> 100	> 100	> 100	> 100
O=C(O)C(F)(F)C(F)(F)C(F)(F)C(F)(F)C(F)(F)C(F)(F)F [Perfluoroheptanoic_acid]	> 100		> 100	> 100	> 100	> 100	> 100	> 100	> 100	> 100	> 100	> 100	> 100	> 100	> 100	> 100	> 100			> 100
NC(O)(C(F)(F)F)C(F)(F)F [2-Aminohexafluoropropan-2-ol]	> 100	> 100	> 100	> 100	> 100	> 100	> 100	> 100	> 100	> 100	> 100	> 100	> 100	> 100	> 100	> 100	> 100			
